Type in all cases: functional
What all share (conditions): Homo sapiens

One assay has as its system U-251. Description: The compound was evaluated for cytotoxicity against U251 CNS cancer cell line.
Another assay relates to LOX IMVI. Description: The compound was evaluated for cytotoxicity against LOX-IMVI melanoma cell line.
The next assay has as its system PC-3. Nature of the assay: The compound was evaluated for cytotoxicity against PC-3 prostate cancer cell line.
For another assay, the system named is MOLT-4. Nature of the assay: The compound was evaluated for cytotoxicity against MOLT-4 leukemia cell line.
The subject of the next assay is IGROV-1. Nature of the assay: The compound was evaluated for cytotoxicity against IGROV1 ovarian cancer cell line.
In the next assay the test system is MDA-N. Nature of the assay: The compound was evaluated for cytotoxicity against MDA-N breast cancer cell line.
The subject of another assay is CAKI-1. Description: The compound was evaluated for cytotoxicity against CAKI-1 renal cancer cell line.
A further assay concerns NCI-H322M. Description: The compound was evaluated for cytotoxicity against NCI-H322M non-small cell lung cancer cell line.
A further assay relates to HCT-116. Nature of the assay: The compound was evaluated for cytotoxicity against HCT116 colon cancer cell line.

Each structure is given as a SMILES string.

As usually defined, the GI50 is the concentration at which growth is held to half of that of the control.

Regarding `CCN(CC)CCNCc1ccc2[nH]c3c(C)c4ccncc4c(C)c3c2c1`, the GI50 was 0.18 µM with U-251; 0.12 µM with LOX IMVI; 0.21 µM with PC-3; 0.01 µM in the assay on MOLT-4; 0.04 µM in the assay on IGROV-1; 0.11 µM in the assay with MDA-N. Further, the GI50 came out at 0.16 µM in the assay with CAKI-1, 0.06 µM in the assay with NCI-H322M and 0.05 µM in the assay with HCT-116.
Turning to `Cc1c2ccncc2c(C)c2c1[nH]c1ccc(CN(CCO)CCO)cc12`, the GI50 was 0.26 µM in the assay with U-251; 0.15 µM with LOX IMVI; 0.34 µM in the assay with PC-3; 0.02 µM in the assay with MOLT-4; 0.12 µM in the assay on IGROV-1; 0.37 µM in the assay with MDA-N. Also, the values for the GI50 with CAKI-1, with NCI-H322M and with HCT-116 were 0.25 µM, 0.22 µM and 0.1 µM, respectively.

The values above are taken from ChEMBL document CHEMBL1129835, “Selective cytotoxicity of certain 9-substituted ellipticines for leukemia cells in a variety of leukemia cell cultures” (1997).
